# Reference: patent publication US7960393B2, “Pyrimidine derivatives useful for the treatment of diseases mediated by CRTH2” (Actimis Pharmaceuticals, Inc., priority 2002, dated 2011)
# Molecular target: T1, human CRTH2 (Homo sapiens, UniProt Q9Y5Y4)
# T1 construct: expressed in transfected cells; host or cells: L1.2 cells, pEAK expression vector, puromycin-selected
# T1 sequence (Q9Y5Y4 1-395): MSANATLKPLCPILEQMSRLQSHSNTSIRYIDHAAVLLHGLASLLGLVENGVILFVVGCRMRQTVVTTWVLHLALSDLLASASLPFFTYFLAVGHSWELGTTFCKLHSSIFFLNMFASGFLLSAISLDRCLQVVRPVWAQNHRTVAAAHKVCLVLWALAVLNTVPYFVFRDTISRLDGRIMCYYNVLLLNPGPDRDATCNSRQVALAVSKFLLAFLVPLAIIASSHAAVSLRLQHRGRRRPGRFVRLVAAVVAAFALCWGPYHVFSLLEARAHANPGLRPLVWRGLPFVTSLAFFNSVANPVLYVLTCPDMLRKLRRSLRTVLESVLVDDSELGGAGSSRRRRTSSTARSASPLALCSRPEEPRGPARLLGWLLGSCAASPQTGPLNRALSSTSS
# Experiment: Measurement of Ca2+ mobilization in the human CRTH2-transfected L1.2 cell line (Assay 1)
# Type: cell-based
# Conditions: PGD2-induced Ca2+ mobilization in CRTH2-transfected L1.2 cells; compounds as yielded by solid phase synthesis, purity about 40 to 90%; read-out: Activity class
# Protocol: Human CRTH2 cDNA was amplified from human eosinophil cDNA with gene specific primers containing restriction sites for cloning into pEAK vector (Edge Bio Systems). The human CRTH2 cDNA was cloned into the mammalian expression vector pEAK. This expression plasmid (40 μg) was transfected into L1.2 cells, at a cell density of 1×10^7 cells/500 μl, by using electroporation apparatus (Gene Pulser II, BioRad) at 250V/1,000 μF. One day after the transfection, puromycin (1 μg/ml, Sigma) was added into the cell culture plates. Two weeks after the transfection, grown cells were picked up for further growth.
# [Measurement of Ca^2+ Mobilization in the Human CRTH2-Transfected L1.2 Cell Line] (Assay 1)
# Ca^2+ loading buffer was prepared by mixing 5 μl of Fluo-3AM (2 mM in DMSO, final 1 μM, Molecular Probes) and 10 μl of pluronic F-127 (Molecular Probes) and diluting the resulting mixture in 10 ml of Ca^2+ assay buffer (20 mM HEPES pH 7.6, 0.1% BSA, 1 mM probenecid, Hanks' solution). The CRTH2 transfected cells which were prepared in Example 1 were washed with PBS, resuspended in Ca^2+ loading buffer at 1×10^7 cells/ml, and incubated for 60 min at room temperature. After incubation, cells were washed and resuspended in Ca^2+ assay buffer, then dispensed into transparent-bottom 96-well plates (#3631, Costar) at 2×10^5 cells/well. Cells were incubated with various concentrations of test compound for 5 minutes at room temperature. The emitted 480 nm fluorescence was measured on FDSS6000, a Ca^2+-measurement apparatus (Hamamatsu Photonics, Hamamatsu, Japan).
# Assay results in Assay 1 are shown in Examples and tables of the Examples below. The data corresponds to the compounds as yielded by solid phase synthesis and thus to levels of purity of about 40 to 90%. For practical reasons, the compounds are grouped in four classes of activity as follows: IC50=A(< or =)10 nM<B(< or =)100 nM<C(< or =)500 nM<D
row,IC50 [nM],Compound
1,10 to 100,CN(C)c1nc(Cc2ccc(NC(=O)c3ccc4ccccc4c3)cc2)nc(N2CCCCC2)c1CC(=O)O [Example 7-5]
2,< 10,Cc1nc(Cc2ccc(NC(=O)c3ccc4ccccc4c3)cc2)nc(N(C)C)c1CC(=O)O [Example 8-3]
3,< 10,"O=C(O)Cc1c(Cl)nc(Cc2ccc(NC(=O)c3ccc4ccccc4c3)cc2)nc1N1CCCC1 [Example 3-1, {4-Chloro-2-[4-(2-naphthoylamino)benzyl]-6-pyrrolidin-1-ylpyrimidin-5-yl}acetic acid]"
4,< 10,O=C(O)Cc1c(Cl)nc(Cc2ccc(NC(=O)c3ccc4ccccc4c3)cc2)nc1N1CC=CC1 [Example 3-10]
5,10 to 100,CN(CC(=O)O)c1nc(Cc2ccc(NC(=O)c3ccc4ccccc4c3)cc2)nc(Cl)c1CC(=O)O [Example 3-2]
6,10 to 100,O=C(O)Cc1c(Cl)nc(Cc2ccc(NC(=O)c3ccc4ccccc4c3)cc2)nc1N1CCC[C@H]1C(=O)O [Example 3-14]
7,< 10,COc1nc(Cc2ccc(NC(=O)c3ccc4ccccc4c3)cc2)nc(Cl)c1CC(=O)O [Example 3-9]
8,< 10,O=C(O)Cc1c(Cl)nc(Cc2ccc(NC(=O)c3ccc4ccccc4c3)cc2)nc1N1CCC(O)C1 (stereo not shown) [Example 3-13]
9,< 10,CCN(C)c1nc(Cc2ccc(NC(=O)c3ccc4ccccc4c3)cc2)nc(Cl)c1CC(=O)O [Example 3-12]
10,10 to 100,CN(C)c1nc(Cc2ccc(NC(=O)c3ccc4ccccc4c3)cc2)nc(N2CCCC2)c1CC(=O)O [Example 7-4]
11,< 10,CSc1ccc(C(=O)Nc2ccc(Cc3nc(Cl)c(CC(=O)O)c(N4CCCC4)n3)cc2)cc1 [Example 3-15]
12,< 10,O=C(O)Cc1c(Cl)nc(Cc2ccc(NC(=O)c3ccc4ccccc4c3)cc2)nc1N1CCOCC1 [Example 3-6]
13,10 to 100,CCN(CC)c1nc(Cc2ccc(NC(=O)c3ccc4ccccc4c3)cc2)nc(Cl)c1CC(=O)O [Example 3-11]
14,< 10,O=C(O)Cc1c(Cl)nc(Cc2ccc(NC(=O)c3ccc4ccccc4c3)cc2)nc1N1CCCCC1 [Example 3-7]
15,< 10,"Cc1nc(Cc2ccc(NC(=O)c3ccc4ccccc4c3)cc2)nc(N2CCCC2)c1CC(=O)O [Example 8-1, {4-Methyl-2-[4-(2-naphthoylamino)benzyl]-6-pyrrolidin-1-ylpyrimidin-5-yl}acetic acid]"
16,10 to 100,CN(C)c1nc(Cc2ccc(NC(=O)c3ccc4ccccc4c3)cc2)nc(N(C)C)c1CC(=O)O [Example 7-3]
17,< 10,CN(c1nc(Cc2ccc(NC(=O)c3ccc4ccccc4c3)cc2)nc(Cl)c1CC(=O)O)C1CCCCC1 [Example 3-3]
18,< 10,CC(C)N(C)c1nc(Cc2ccc(NC(=O)c3ccc4ccccc4c3)cc2)nc(Cl)c1CC(=O)O [Example 3-4]
19,10 to 100,"CN(C)c1nc(Cc2ccc(NC(=O)c3ccc4ccccc4c3)cc2)nc(N2CCOCC2)c1CC(=O)O [Example 7-1, {4-(Dimethylamino)-6-morpholin-4-yl-2-[4-(2-naphthoylamino)benzyl]pyrimidin-5-yl}acetic acid]"

# The next lines start with the molecule.
row,Compound,IC50 [nM]
1,COc1ccc(C(=O)Nc2ccc(Cc3nc(Cl)c(CC(=O)O)c(N4CCCC4)n3)cc2)cc1Cl [Example 3-16],< 10
2,CCCCCCCNc1ccc(Cc2nc(Cl)c(CC(=O)O)c(N(C)CC(=O)NC3CCCC3)n2)cc1 [Example 5-5],> 500
3,"CN(C)c1nc(Cc2ccc(N(C)C(=O)c3ccc(Cl)cc3)cc2)nc(Cl)c1CC(=O)O [Example 6-1, [4-Chloro-2-{4-[(4-chlorobenzoyl)(methyl)amino]benzyl}-6-(dimethylamino)pyrimidin-5-yl]acetic acid]",100 to 500
4,CN(Cc1ccccc1)C(=O)Nc1ccc(Cc2ncc(CC(=O)O)c(N(C)C)n2)cc1 [Example 4-6],100 to 500
5,COc1cccc(C(=O)Nc2ccc(Cc3ncc(CC(=O)O)c(N(C)C)n3)cc2)c1 [Example 2-14],10 to 100
6,CN(C)c1nc(Cc2ccc(NC(=O)c3ccc(F)cc3)cc2)ncc1CC(=O)O [Example 2-20],10 to 100
7,"CN(C)c1nc(Cc2ccc(NC(=O)c3ccc4ccccc4c3)cc2)nc(Cl)c1CC#N [Example 12, N-(4-{[4-Chloro-5-(cyanomethyl)-6-(dimethylamino)pyrimidin-2-yl]methyl}phenyl)-2-naphthamide]",100 to 500
8,Cc1nc(Cc2ccc(NC(=O)c3ccc(Cl)c(Cl)c3)cc2)nc(N2CCCC2)c1CC(=O)O [Example 8-2],< 10
9,CN(C)c1nc(Cc2ccc(NC(=O)c3ccc(Cl)cc3)cc2)ncc1CC(=O)O [Example 2-6],< 10
10,CN(CC(=O)N1CCCC1)c1nc(Cc2ccc(NC(=O)c3ccc4ccccc4c3)cc2)ncc1CC(=O)O [Example 2-3],< 10
11,CN(CC(=O)NC1CCCC1)c1nc(Cc2ccc(NC(=O)/C=C/c3ccccc3)cc2)ncc1CC(=O)O [Example 2-5],< 10
12,CN(CC(=O)NC1CCCC1)c1nc(Cc2ccc(NC(=O)c3ccccc3)cc2)ncc1CC(=O)O [Example 2-4],10 to 100
13,CN(CC(=O)NC1CCCC1)c1nc(Cc2ccc(NC(=O)NCc3ccccc3)cc2)nc(Cl)c1CC(=O)O [Example 4-2],10 to 100
14,CN(C)c1nc(Cc2ccc(NC(=O)c3ccc(Cl)c(Cl)c3)cc2)nc(N(C)C)c1CC(=O)O [Example 7-6],< 10
15,Cc1nc(Cc2ccc(NC(=O)c3ccc(Cl)c(Cl)c3)cc2)nc(N(C)C)c1CC(=O)O [Example 8-4],< 10
16,CN(CC(=O)NC1CCCC1)c1nc(Cc2ccc(NC(=O)NCCc3ccccc3)cc2)nc(Cl)c1CC(=O)O [Example 4-3],10 to 100
17,CN(C)c1nc(Cc2ccc(N(C)C(=O)c3ccc4ccccc4n3)cc2)nc(Cl)c1CC(=O)O [Example 6-3],> 500

row,Compound,IC50 [nM]
1,CN(C)c1nc(Cc2ccc(NC(=O)c3ccc(Br)cc3)cc2)ncc1CC(=O)O [Example 2-16],< 10
2,CN(CC(=O)NC1CCCC1)c1nc(Cc2ccc(NC(=O)Nc3ccc4ccccc4c3)cc2)nc(Cl)c1CC(=O)O [Example 4-4],10 to 100
3,CN(CC(=O)NC1CCCC1)c1nc(Cc2ccc(NC(=O)c3ccc4ccccc4c3)cc2)ncc1CC(=O)O [Example 2-2],< 10
4,CN(CC(=O)NC1CCCC1)c1nc(Cc2ccc(NC/C=C/c3ccccc3)cc2)nc(Cl)c1CC(=O)O [Example 5-4],100 to 500
5,CN(C)c1nc(Cc2ccc(NC(=O)NCc3ccccc3)cc2)ncc1CC(=O)O [Example 4-5],10 to 100
6,CC(c1ccc(NC(=O)c2ccc3ccccc3c2)cc1)c1ncc(CC(=O)O)c(N(C)C)n1 (stereo not shown) [Example 2-18],< 10
7,CN(C)c1nc(Cc2ccc(NC(=O)/C=C/c3ccccc3)cc2)nc(N(C)C)c1CC(=O)O [Example 7-7],< 10
8,CN(C)c1nc(Cc2ccc(N(C)C(=O)/C=C/c3ccccc3)cc2)nc(Cl)c1CC(=O)O [Example 6-2],> 500
9,CN(C)c1nc(Cc2ccc(NC(=O)/C=C/c3ccc(C(F)(F)F)cc3)cc2)ncc1CC(=O)O [Example 2-17],< 10
10,"CN(CC(=O)NC1CCCC1)c1nc(Cc2ccc(NC(=O)Nc3ccccc3)cc2)nc(Cl)c1CC(=O)O [Example 4-1, {2-{4-[(Anilinocarbonyl)amino]benzyl}-4-chloro-6-[[2-(cyclopentylamino)-2-oxoethyl](methyl)amino]pyrimidin-5-yl}acetatic acid]",10 to 100
11,CN(C)c1nc(Cc2ccc(NC(=O)c3ccc(S(N)(=O)=O)cc3)cc2)nc(Cl)c1CC(=O)O [Example 1-40],100 to 500
12,CN(C)c1nc(Cc2ccc(NC(=O)OCc3ccc([N+](=O)[O-])cc3)cc2)ncc1CC(=O)O [Example 9-4],10 to 100
13,CN(C)c1nc(Cc2ccc(NC(=O)c3ccc4cc[nH]c4c3)cc2)nc(Cl)c1CC(=O)O [Example 3-8],< 10
14,CN(C)c1nc(Cc2ccc(NC(=O)c3ccc(OC(F)(F)F)cc3)cc2)ncc1CC(=O)O [Example 2-19],< 10
15,Cc1nc(Cc2ccc(NC(=O)/C=C/c3ccccc3)cc2)nc(N(C)C)c1CC(=O)O [Example 8-5],< 10
16,"CN(CC(=O)NC1CCCC1)c1nc(Cc2ccc(NCC3CCCCC3)cc2)nc(Cl)c1CC(=O)O [Example 5-1, {4-Chloro-2-{4-[(cyclohexylmethyl)amino]benzyl}-6-[[2-(cyclopentylamino)-2-oxoethyl](methyl)amino]pyrimidin-5-yl}acetic add]",> 500
